Laboratory results published in patent publication US7094752B2 (Chiron Corporation, priority 1997, dated 2006).

How the values were obtained:
[1] = target: T1, β1/caveolin/uPAR complexes (Homo sapiens, UniProt Q03405); experiment: Immunoprecipitation of uPAR with β1 / caveolin; type: cell-based; details: 100 μM, co-immunoprecipitation
T1 construct: The full length cDNA for the human urokinase receptor; expressed in transfected cells; host or cells: 293 embryonic kidney cells stably expressing GPI-uPAR
T1 sequence (Q03405 23-305, one chain of several): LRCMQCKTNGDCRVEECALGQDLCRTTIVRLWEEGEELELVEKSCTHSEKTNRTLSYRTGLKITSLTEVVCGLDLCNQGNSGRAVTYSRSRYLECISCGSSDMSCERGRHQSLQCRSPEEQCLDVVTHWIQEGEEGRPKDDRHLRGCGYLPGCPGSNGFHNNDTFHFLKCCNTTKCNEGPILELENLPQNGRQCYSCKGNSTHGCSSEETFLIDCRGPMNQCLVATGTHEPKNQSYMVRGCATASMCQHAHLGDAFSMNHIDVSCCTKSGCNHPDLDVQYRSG
Procedure: When triton X 100 (0.2%) insoluble fraction of GPI-uPAR 293 cells is solubilized in polar detergents, immunoprecipitation of β1 clearly co-precipitates uPAR as described in Filardo et al, J. Cell. Biol. 1995, in press: Cells (5×10^6) were cultured overnight, washed twice with microtubule stabilization buffer (0.1M PIPES, pH 6.9, 2M glycerol, 1 mM EDTA, and 1 mM magnesium acetate), and then extracted on ice for 5 minutes in buffer containing 0.2% Triton X 100 and inhibitors (1 mM sodium orthovandate, 1 mM phenylsulfonyl fluoride, […] leupeptin). The insoluble residues were solubolized at 4° C. for 20 minutes in 1× RIPA buffer (150 mM sodium chloride, 50 mM Tris-HCl, pH 7.5, 1% deoxycholate, 0.1% sodium dodecyl sulfate, 1% Triton X-100) supplemented with protease inhibitors. The triton soluble fraction was diluted 1:1 with 2× RIPA buffer. Both fractions were centrifuged for 10 minutes at 6000 rpm, and then precleared by incubation with nonimmune serum and protein A-agarose for 2 hours at 4° C.
Supernatants were transferred to fresh tubes and incubated with antibodies against β1 or caveolin for 2 hours at 4° C. Immune complexes were recovered with protein A-agarose. The washed immunoprecipitates were subjected to 8% SDS-PAGE, and transferred onto a nitrocellulose membrane. […]

[2] = target: soluble uPAR (Homo sapiens, UniProt Q03405); type: binding; parameters: sUPAR, soluble truncated form of the urokinase receptor; made in house; host or cells: baculovirus-infected Sf9 insect cells
soluble uPAR, sequence (Q03405 23-305 limits assumed): as the sequence (Q03405 23-305, one chain of several) above
Procedure: Streptavidin, 100 μl (0.1 mg/ml) in 50 mM Na2CO3, pH 9.6, was added to MaxiSorp wells (Nunc), incubated overnight at 4 C, and then washed with PBS/BSA. Biotinylated sUPAR (25 nM in PBS/BSA) was added to the wells and incubated for 2 hours at room temperature prior to washing. Competitive peptide inhibitors were added to the wells immediately prior to addition of the bacteriophage. The wells were incubated for one hour at room temperature, then washed and bound bacteriophage eluted with 6M urea in 0.1N HCl, pH 2.5. After 15 minutes, the urea eluate was brought to neutral pH by addition of 2M Tris base and the bacteriophage titers of input stocks and elutions measured by plaque formation assay. Results were expressed as the percent of input bacteriophage which bind to the wells. Alternatively, the amount of bacteriophage was determined in an ELISA where phage were preincubated with HRP-conjugated anti-M13 antibody for 30 minutes at room temperature before dispensing into wells prepared as above and incubated for one hour at room temperature. The final anti-M13 conjugate dilution was 1:4000. After washing, TMB substrate (100 μl/well) was added and color development was stopped with 0.8N H2SO4 (100 μl/well). The absorbance at 450 nm was then measured in a 96 well plate reader.
In a uPAR binding assay, the following analogs were tested in a competition with phage displaying either peptide 25 or peptide 9. The analogs comprise both natural and unnatural amino acids.
The analogs were tested in an assay utilizing soluble uPAR, similar to the method described in Example 2. The analogs were tested for their ability to compete with phage displaying either peptide 9 or peptide 25. Analogs 3–61 were tested in competition with peptide 25. Analogs 62–96 were tested in competition with peptide 9. Approximately 10^8 plaque forming units of the phage were used in the assay.
The analogs were tested at a concentration at 40 μM in the uPAR competition assay with phage displaying peptide 25. The results below show which analogs were active.
Analogs 31–61 were tested for their ability to compete with phage displaying peptide 25. The active analogs were tested further at two concentrations, 5 μM and 2.5 μM. These concentrations were calculated based on the synthesis reactions. However, the sequences * were further tested and determined to contain high amounts of amino acids and the quantity tested could have been higher than 5 μM or 2.5 μM.

[3] = target: T2, Mac-1 and uPAR (Homo sapiens, UniProt Q03405); experiment: Mac-1/uPAR interaction in U937 cell line; type: cell-based; details: 100 μM
T2 construct: endogenous in cells; host or cells: U937 cell line
T2 sequence (Q03405 23-305 limits assumed): as the sequence (Q03405 23-305, one chain of several) above

[4] = target: T3, suPAR (Homo sapiens, UniProt Q03405); experiment: SuPAR:1-anilino-8-napthalenesulfonate (ANS) fluorescence; type: binding; details: 2 μM sUPAR, 10 μM ANS, 0 to 20 μM competitor
T3 construct: sUPAR, soluble truncated form of the urokinase receptor; made in house; host or cells: baculovirus-infected Sf9 insect cells
T3 sequence (Q03405 23-305 limits assumed): as the sequence (Q03405 23-305, one chain of several) above
Procedure: Determination of the effect of various peptide ligands on sUPAR/ANS fluorescence was performed following a procedure similar to that of Ploug et al, Biochem. 33: 8991–8997 (1994). Fluorescence emission spectra of sUPAR/ANS solutions with or without competitors were obtained using an Hitachi F-4500 fluorescence spectrophotometer with an excitation wavelength of 386 nm, 5-nm band-pass excitation and emission slits, and a 10 mm path length quartz cuvette. The emission spectra from 400 to 600 nm were recorded. For competition measurements, dilutions of a stock sUPAR/ANS solution were made to give individual 0.5 ml aliquots with a final concentration of 2 μM sUPAR, 10 μM ANS, and 0 to 20 μM competitor in PBS containing 10% DMSO. Fluorescence measurements were made after a one hour incubation at 25° C.

Substance: H-AESTYHHLSLGYMYTLN-NH2 [peptide 25]
- disruption of β1/caveolin/uPAR complexes [1]: largely disrupted
- % Inhibition 2.5 uM ([2]; 2500.0): 45%
- % Inhibition 5 uM ([2]; 5000.0): 59%
- interaction between Mac-1 and uPAR [3]: abrogated the interaction
- effect on ANS fluorescence enhancement in the presence of uPAR [4]: no effect
